According to patent publication EP4803513A1, “SUBSTITUTED QUINAZOLINE COMPOUND, PREPARATION METHOD THEREFOR, PHARMACEUTICAL COMBINATION THEREOF, AND USE THEREOF” (Hongyun Biotech Co., Ltd., priority 2023, dated 2025):

How the values were obtained:
[1] = system: GA6208; assay: In vitro activity test of gastric cancer PDX (CellTiter-Glo), GA6208; type: cell-based; conditions: PDX GA6208, gastric cancer with high BRK expression, 168 hours
Method: (§1) Patient-derived xenograft (PDX) models are methods in which tumor tissue from cancer patients is transplanted into severely immunodeficient mice for culture and passaging, and used to test compound activity. The compounds of the present invention were tested using three PDX samples (GA0119, GA6208, and GA6871, all being gastric cancers with high BRK expression, all cultured in DMEM).
(§2) Preparation of PDX model tumor cell suspension: PDX model animals were housed in the animal facility, and tumor growth was observed weekly. When the PDX model tumor grew to an appropriate size, the tumor was removed and minced using sterile surgical instruments. Collagenase B digestion solution was added, and digestion was performed at 37°C for approximately 2 hours. Undigested tissue was removed by passing through a cell strainer. The strainer was washed with PBS 3-5 times, and the cell pellet was washed with PBS 4 times. Tumor cells were resuspended in culture medium. ACK lysis buffer was used to remove red blood cells when necessary.
(§3) Cell plating: The above cell suspension was taken and counted. The cell suspension concentration was adjusted to 5.75 × 10^5 cells/mL by dilution with culture medium. 3.5 mL of the cell suspension and 6.5 mL of 1% methylcellulose solution were mixed thoroughly. 100 µL of the cell suspension was added to each well of a 96-well plate (including compound-treated cell plates and T0 control cell plates), followed by incubation overnight under conditions of 37°C, 5% CO2, and 95% humidity.
(§4) Day 0 cell viability reading: The CellTiter-Glo® reagent and T0 control cell culture plate were equilibrated at room temperature for 30 minutes. 100 µL of CellTiter-Glo® reagent was added to each well. The plate was shaken on an orbital shaker for 20 minutes to ensure complete cell lysis. The cell culture plate was then equilibrated at room temperature for 10 minutes, and the chemiluminescence signal was read using an EnVision plate reader.
(§5) Day 0 compound treatment: The test compound (stock concentration 10 mM) was taken out and equilibrated at room temperature for use. The compound treatment cell plate was taken out. The test compound solution was added to the corresponding wells. The highest concentration for each compound was 30 µM, with 3-fold serial dilutions, 9 concentration points, each concentration point in triplicate (DMSO concentration normalized). The final concentration of DMSO in each cell well was 0.3%. The dosed 96-well plate was then placed in an incubator at 37°C, 5% CO2, and 95% humidity for continued culture for 168 hours.
(§6) Day 7 cell viability reading: The CellTiter-Glo® reagent and cell culture plate were equilibrated at room temperature for 30 minutes. 100 µL of CellTiter-Glo® reagent was added to each well. The plate was shaken on an orbital shaker for 20 minutes to lyse the cells. The cell plate was then placed at room temperature for 10 minutes to stabilize the luminescence signal, and the luminescence value was read using an EnVision plate reader.
(§7) Data processing: Data were analyzed using GraphPad Prism 9.0 software. A nonlinear sigmoidal curve regression was used to fit the data and generate a dose-response curve, from which the IC50 value was calculated. Cell survival rate (%) = (Lumtest compound - Lummedium control) / (Lumcell control - Lummedium control) × 100%. Lum represents the luminescence value.

[2] = system: gastric cancer xenograft model GA6208; assay: In vivo efficacy evaluation of gastric cancer PDX (GA6208); parameters: species or system Balb/c nude mice; conditions: for Day 35 tumor volume (mean ± SEM): I-21 100 mg/kg oral gavage twice daily, I-81 100/80 mg/kg oral gavage twice daily, cisplatin 3 mg/kg tail vein once weekly, in mm³ (unit assumed); for Day 35 TGI (%): tumor growth inhibition vs vehicle control, same dosing as tumor volume
Description: Tumor tissue was collected from tumor-bearing mice of the gastric cancer xenograft model GA6208, cut into tumor pieces of 2-3 mm in diameter, and subcutaneously inoculated at the right front scapular region of Balb/c nude mice. When the mean tumor volume of the tumor-bearing mice reached approximately 150 mm^3 (100-200 mm^3), the mice were randomly divided into 4 groups of 8 mice each, and administered as follows: vehicle control (0.5% CMC-Na solution, oral gavage, twice daily), compound I-21 (100 mg/kg, oral gavage, twice daily), compound I-81 (100 mg/kg for the first 8 days, then 80 mg/kg for the subsequent 27 days, oral gavage, twice daily), and cisplatin (3 mg/kg, tail vein injection, once weekly), for a total of 35 days.

[3] = system: GA6871; assay: In vitro activity test of gastric cancer PDX (CellTiter-Glo), GA6871; type: cell-based; conditions: PDX GA6871, gastric cancer with high BRK expression, 168 hours
Method: as §1, §2, §3, §4, §5, §6, §7

[4] = system: GA0119; assay: In vitro activity test of gastric cancer PDX (CellTiter-Glo), GA0119; type: cell-based; conditions: PDX GA0119, gastric cancer with high BRK expression, 168 hours
Method: as §1, §2, §3, §4
Day 0 compound treatment: The test compound (stock concentration 10 mM) was taken out and equilibrated at room temperature for use. The compound treatment cell plate was taken out. The test compound solution was added to the corresponding wells. […]
as §6, with “100 µL of CellTiter-Glo® reagent was added to each well. The plate was shaken on an orbital shaker for 20 minutes to lyse the cells.” left out
Data processing: Data were analyzed using GraphPad Prism 9.0 software. A nonlinear sigmoidal curve regression was used to fit the data and generate a dose-response curve, from which the IC50 value was calculated. […] Lum represents the luminescence value.

[5] = system: WT-BaF3 cells; assay: Cell antiproliferative activity assay (CCK-8), WT-BaF3 (broad-spectrum cytotoxicity); type: cell-based; conditions: 72 h; WT-BaF3 cells (IL-3 supplemented), CCK-8, 3 days incubation
Summary of the method: (§8)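 Growth inhibition over 3 days, with compound serially diluted 3-fold from a 10 µM top concentration. Cells seeded at 100,000 cells/mL; WT-BaF3 medium carried 10% WEHI supernatant as the IL-3 source. Viability read by CCK-8 OD450 after 2-4 h; IC50 from blank-subtracted curve fit.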

[6] = system: BRK-BaF3 cells; assay: Cell antiproliferative activity assay (CCK-8), BRK-BaF3; type: cell-based; conditions: 72 h, CCK-8, 3 days incubation
Summary of the method: as §8

[7] = system: T47D cells; assay: Cell antiproliferative activity assay (CCK-8), T47D; type: cell-based; conditions: Homo sapiens, 72 h, breast cancer cell line T47D, incubation for 3 days
Method: BRK-BaF3, WT-BaF3, WEHI cell line, and breast cancer cell line T47D were cultured using RPMI 1640 Basal medium or DMEM (Dulbecco's Modified Eagle Medium) (Shanghai Peiyuan Biotechnology, L220KJ), supplemented with 10% FBS (Gibco, REF 10099-141C) and 1% P/S (Shanghai Peiyuan Biotechnology, S110JV), in an incubator (Thermo 3020) at 37°C with 5% CO2. Cell viability was above 95%. Cells were passaged at a 3:1 ratio every 3-4 days. For WT-BaF3 cells, WEHI cells were first cultured, and their culture supernatant was filtered through a 0.22 µm filter. This supernatant was added at 10% to the regular culture medium to supplement IL-3 required for WT-BaF3 cell proliferation, which served as the culture medium for WT-BaF3. For testing, cells were first collected and counted, then prepared into a cell suspension at 100,000 cells/mL and plated at 100 µL per well. Drug concentrations started from 10 µM and were serially diluted 3:1. After incubation for 3 days, 20 µL of CCK-8 detection reagent (Targetmol C005) was added to each well. After incubation for 2-4 hours, OD450 was measured using a microplate reader (Varioskan LUX, Thermo Scientific). After subtracting the blank background, the curve was fitted and the IC50 was calculated using XLfit software.
In addition, the following table exemplarily lists the IC50 values of some compounds of the present invention against T47D cells.

Row | IC50 [1] [µM] | IC50 [3] [µM] | IC50 [4] [µM] | IC50 [6] [µM] | IC50 [7] [µM] | Compound | Day 35 tumor volume (mean ± SEM) [2] | Day 35 TGI (%) [2] [%] | IC50 [5] [µM]
1 | 0.62 | 2.13 | 1.14 | ≤ 0.02 | – | Cc1nn(CCO)cc1Nc1ncc2cc(-c3cccnc3)cc(C(C)C)c2n1 [I-21] | 782.88±71.02 | 44.59 | > 2.5
2 | 3.92 | 7.13 | 4.54 | ≤ 0.02 | – | Cc1nn(CCO)cc1Nc1ncc2cc(-c3nccnc3C)cc(C(C)C)c2n1 [I-81] | 595.03±30.63 | 57.89 | > 2.5
3 | 8.53 | 17 | – | ≤ 0.02 | – | Cc1nn(CCO)cc1Nc1ncc2cc(-c3nccnc3C)cc(C(F)(F)F)c2n1 [I-109] | – | – | > 2.5
4 | 5.63 | 9.28 | 8.01 | ≤ 0.02 | ≤ 0.5 | COc1c(P(C)(C)=O)ccc(Nc2ncc3cc(-c4nccnc4C)cc(C4CC4)c3n2)c1F [II-69] | – | – | > 2.5

Row | Compound | IC50 [1] [µM] | IC50 [3] [µM] | IC50 [4] [µM] | IC50 [6] [µM] | IC50 [7] [µM] | Day 35 tumor volume (mean ± SEM) [2] | Day 35 TGI (%) [2] [%] | IC50 [5] [µM]
5 | N.N.[Cl][Pt][Cl] [cisplatin, reference compound] | 0.298 | 4.28 | 1.38 | – | – | 1250.42±137.64 | 11.50 | –
